From publication PMC12203311, “Design, synthesis, in silico and in vitro evaluation of pyrrole–indole hybrids as dual tubulin and aromatase inhibitors with potent anticancer activities” (RSC Advances, 2025)
Read-outs that look alike come from different tables or passages of the source.

Assays:
SK-MEL-28 = test: NCI60 five-dose screen; assay type: cell-based; conditions: Homo sapiens, SK-MEL-28, melanoma; for CC50: read-out: LC50 (the source's name)
SK-OV-3 = test: NCI60 five-dose screen; assay type: cell-based; conditions: Homo sapiens, SK-OV-3, ovarian cancer; for CC50: read-out: LC50 (the source's name)
SF-295 = test: NCI60 five-dose screen; assay type: cell-based; conditions: Homo sapiens, SF-295, CNS cancer; for CC50: read-out: LC50 (the source's name)
UACC-257 = test: NCI60 five-dose screen; assay type: cell-based; conditions: Homo sapiens, UACC-257, melanoma; for CC50: read-out: LC50 (the source's name)
SN12C = test: NCI60 five-dose screen; assay type: cell-based; conditions: Homo sapiens, renal cancer; for CC50: read-out: LC50 (the source's name)
HL-60 (TB) = test: NCI60 five-dose screen; assay type: cell-based; conditions: Homo sapiens, leukemia; for CC50: read-out: LC50 (the source's name)
BT-549 = test: NCI60 five-dose screen; assay type: cell-based; conditions: Homo sapiens, BT-549, breast cancer; for CC50: read-out: LC50 (the source's name)
UO-31 = test: NCI60 five-dose screen; assay type: cell-based; conditions: Homo sapiens, UO-31, renal cancer; for CC50: read-out: LC50 (the source's name)
MALME-3M = test: NCI60 five-dose screen; assay type: cell-based; conditions: Homo sapiens, melanoma; for CC50: read-out: LC50 (the source's name)
PC-3 = test: NCI60 five-dose screen; assay type: cell-based; conditions: Homo sapiens, PC-3, prostate cancer; for CC50: read-out: LC50 (the source's name)
NCI-H226 = test: NCI60 five-dose screen; assay type: cell-based; conditions: Homo sapiens, NCI-H226, NSC lung cancer; for CC50: read-out: LC50 (the source's name)
A549/ATCC = test: NCI60 five-dose screen; assay type: cell-based; conditions: Homo sapiens, NSC lung cancer; for CC50: read-out: LC50 (the source's name)
COLO 205 = test: NCI60 five-dose screen; assay type: cell-based, human; conditions: Homo sapiens; for CC50: COLO 205, COLO 205, colon cancer, read-out: LC50 (the source's name); for GI50: COLO 205, colon cancer
SF-268 = test: NCI60 five-dose screen; assay type: cell-based; conditions: Homo sapiens, SF-268, CNS cancer; for CC50: read-out: LC50 (the source's name)
HOP-92 = test: NCI60 five-dose screen; assay type: cell-based; conditions: Homo sapiens, HOP-92, NSC lung cancer; for CC50: read-out: LC50 (the source's name)
HOP-62 = test: NCI60 five-dose screen; assay type: cell-based; conditions: Homo sapiens, HOP-62, NSC lung cancer; for CC50: read-out: LC50 (the source's name)
CAKI-1 = test: NCI60 five-dose screen; assay type: cell-based; conditions: Homo sapiens, CAKI-1, renal cancer; for CC50: read-out: LC50 (the source's name)
OVCAR-8 = test: NCI60 five-dose screen; assay type: cell-based; conditions: Homo sapiens, OVCAR-8, ovarian cancer; for CC50: read-out: LC50 (the source's name)
NCI-H460 = test: NCI60 five-dose screen; assay type: cell-based; conditions: Homo sapiens, NCI-H460, NSC lung cancer; for CC50: read-out: LC50 (the source's name)
MDA-MB-435 = test: NCI60 five-dose screen; assay type: cell-based, human; conditions: for CC50: read-out: LC50 (the source's name)
LOX IMVI = test: NCI60 five-dose screen; assay type: cell-based; conditions: Homo sapiens, melanoma; for CC50: read-out: LC50 (the source's name)
A498 = test: NCI60 five-dose screen; assay type: cell-based; conditions: Homo sapiens, A498, renal cancer; for CC50: read-out: LC50 (the source's name)
RXF 393 = test: NCI60 five-dose screen; assay type: cell-based; conditions: Homo sapiens, RXF 393, renal cancer; for CC50: read-out: LC50 (the source's name)
MDA-MB-468 = test: NCI60 five-dose screen; assay type: cell-based; conditions: Homo sapiens, MDA-MB-468, breast cancer; for CC50: read-out: LC50 (the source's name)
[1] = tested on: L929 normal mouse fibroblast cell line; test: Cytotoxicity MTT assay, L929; assay type: cell-based; conditions: IC50 (L929)/IC50 (T47D)
Procedure, shortened: (§1)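 T47D breast cancer and L929 mouse fibroblasts in DMEM/10% FBS, seeded at 10 000 cells/well and grown overnight. Compounds at designated concentrations for 48 h at 37 °C, then 0.5 mg/mL MTT for 3 h. Formazan dissolved in DMSO, A570 read, viability as % of DMSO vehicle.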

[2] = Cytotoxicity MTT assay, L929; assay type: cell-based, mouse; conditions: mouse, L929 fibroblast cells; MTT, 48 hours
Procedure, shortened: as §1

CCRF-CEM = test: NCI60 five-dose screen; assay type: cell-based; conditions: Homo sapiens, leukemia; for CC50: read-out: LC50 (the source's name)
786-0 = test: NCI60 five-dose screen; assay type: cell-based; conditions: Homo sapiens, 786-0, renal cancer; for CC50: read-out: LC50 (the source's name)
HCT-15 = test: NCI60 five-dose screen; assay type: cell-based; conditions: Homo sapiens, HCT-15, colon cancer; for CC50: read-out: LC50 (the source's name)
RPMI-8226 = test: NCI60 five-dose screen; assay type: cell-based; conditions: Homo sapiens, RPMI-8226, leukemia; for CC50: read-out: LC50 (the source's name)
NCI-H23 = test: NCI60 five-dose screen; assay type: cell-based; conditions: Homo sapiens, NCI-H23, NSC lung cancer; for CC50: read-out: LC50 (the source's name)
[3] = Homo sapiens, MDA-MB-435, MDA-MB-435, melanoma
[4] = Homo sapiens, MDA-MB-435, melanoma

## CCOC(=O)c1cc(/C=N/NC(=O)c2[nH]c3ccc(Br)cc3c2-c2ccccc2)c[nH]1 [Derivative 3v, Ethyl (E)-4-((2-(5-bromo-3-phenyl-1H-indole-2-carbonyl)hydrazono)methyl)-1H-pyrrole-2-carboxylate]
SK-MEL-28
  GI50: 4.73 µM
  CC50: 48.5 µM
SK-OV-3
  GI50: 1.31 µM
  CC50: 80.3 µM
SF-295
  GI50: 3.04 µM
  CC50: 37.2 µM
UACC-257
  GI50: 11.7 µM
  CC50: 77.8 µM
SN12C
  GI50: 3.63 µM
  CC50: 38.1 µM
HL-60 (TB)
  GI50: 4.68 µM
  CC50: > 100 µM
BT-549
  GI50: 13.4 µM
  CC50: 60.2 µM
UO-31
  GI50: 4.21 µM
  CC50: 61.9 µM
MALME-3M
  GI50: 4.32 µM
  CC50: 52.8 µM
PC-3
  GI50: 4.07 µM
  CC50: > 100 µM
NCI-H226
  GI50: 4.21 µM
  CC50: 46.2 µM
A549/ATCC
  GI50: 4.37 µM
  CC50: 44.2 µM
COLO 205
  CC50: 34.8 µM
  GI50: 3.51 µM
SF-268
  GI50: 6.04 µM
  CC50: > 100 µM
HOP-92
  GI50: 7.99 µM
  CC50: > 100 µM
HOP-62
  GI50: 6.66 µM
  CC50: 69.2 µM
CAKI-1
  GI50: 3.2 µM
  CC50: 40.2 µM
OVCAR-8
  GI50: 3.65 µM
  CC50: 38.5 µM
NCI-H460
  GI50: 3.49 µM
  CC50: 34.3 µM
MDA-MB-435; [3]
  CC50: 9.35 µM
MDA-MB-435; [4]
  GI50: 1.54 µM
MDA-MB-435; MDA-MB-435, melanoma
  CC50: 9.53 µM
LOX IMVI
  GI50: 4.31 µM
  CC50: 41.1 µM
A498
  GI50: 12.9 µM
  CC50: 52.1 µM
RXF 393
  GI50: 2.56 µM
  CC50: 33 µM
MDA-MB-468
  GI50: 2.6 µM
  CC50: 34 µM
[1]
  Selectivity index (SI): 3.62
[2]
  IC50 at 48 h: 90.1 ± 40.3 µM
CCRF-CEM
  GI50: 3.7 µM
  CC50: > 100 µM
786-0
  GI50: 6.01 µM
  CC50: 53.3 µM
HCT-15
  GI50: 3.21 µM
  CC50: 35.7 µM
RPMI-8226
  GI50: 3.84 µM
  CC50: > 100 µM
NCI-H23
  GI50: 3.42 µM
  CC50: 40.4 µM

## O=C(N/N=C/c1cc(Br)c(Br)[nH]1)c1[nH]c2ccc(Br)cc2c1-c1ccccc1 [Derivative 3f, (E)-5-Bromo-N′-((4,5-dibromo-1H-pyrrol-2-yl)methylene)-3-phenyl-1H-indole-2-carbohydrazide]
SK-MEL-28
  GI50: 5.1 µM
  CC50: 47 µM
SK-OV-3
  GI50: 4.76 µM
  CC50: 72.5 µM
SF-295
  GI50: 2.2 µM
  CC50: 26.9 µM
UACC-257
  GI50: 3.24 µM
  CC50: 45.7 µM
SN12C
  GI50: 2.15 µM
  CC50: 30.7 µM
HL-60 (TB)
  GI50: 2.38 µM
  CC50: 88.8 µM
BT-549
  GI50: 3.69 µM
  CC50: 90.8 µM
UO-31
  GI50: 1.94 µM
  CC50: 38.5 µM
MALME-3M
  GI50: 2.97 µM
  CC50: 42.4 µM
PC-3
  GI50: 2.29 µM
  CC50: 63.3 µM
NCI-H226
  GI50: 2.28 µM
  CC50: 32.5 µM
A549/ATCC
  GI50: 3.11 µM
  CC50: 37.6 µM
COLO 205
  CC50: 48.8 µM
  GI50: 3.36 µM
SF-268
  GI50: 2.57 µM
  CC50: 65.3 µM
HOP-92
  GI50: 1.88 µM
  CC50: 46 µM
HOP-62
  GI50: 3.52 µM
  CC50: > 100 µM
CAKI-1
  GI50: 1.38 µM
  CC50: 40.9 µM
OVCAR-8
  GI50: 1.98 µM
  CC50: 17.2 µM
NCI-H460
  GI50: 2.53 µM
  CC50: 32.7 µM
MDA-MB-435; [3]
  CC50: 19.6 µM
MDA-MB-435; [4]
  GI50: 1.01 µM
LOX IMVI
  GI50: 2.31 µM
  CC50: 31.8 µM
A498
  GI50: 11.1 µM
  CC50: 49.4 µM
RXF 393
  GI50: 1.55 µM
  CC50: 34.3 µM
MDA-MB-468
  GI50: 2.09 µM
  CC50: 22.8 µM
[1]
  Selectivity index (SI): 2.51
[2]
  IC50 at 48 h: 47.9 ± 0.5 µM
CCRF-CEM
  GI50: 2.89 µM
  CC50: > 100 µM
786-0
  GI50: 4.91 µM
  CC50: 64.1 µM
HCT-15
  GI50: 2.7 µM
  CC50: 33.1 µM
RPMI-8226
  GI50: 2.27 µM
  CC50: > 100 µM
NCI-H23
  GI50: 2.62 µM
  CC50: 34 µM
